How the values were obtained:
[1] = wn = mass fraction of the nth substance listed; conditions: 101 kPa, w1 = 0.561; for viscosity: Capillary tube (Ostwald / Ubbelohde) method; for mass density: Vibrating tube method
[2] = molar heat capacity at constant pressure; wn = mass fraction of the nth substance listed; conditions: 101 kPa, w1 = 0.561

O=[N+]([O-])[O-].[Li+] [lithium nitrate] + O
Conditions	mass density [kg/m3]	molar heat capacity at constant pressure [J/K/mol]	thermal conductivity [W/m/K]	viscosity [mPa·s]
[1], 253.2 K, Crystal of intercomponent compound 1, Hot disk method	–	–	0.76	–
[1], 263.2 K, Crystal of intercomponent compound 1, Hot disk method	–	–	0.74	–
[1], 273.2 K, Crystal of intercomponent compound 1, Hot disk method	–	–	0.77	–
[1], 283.2 K, Crystal of intercomponent compound 1, Hot disk method	–	–	0.76	–
[1], 293.2 K, Crystal of intercomponent compound 1, Hot disk method	–	–	0.75	–
[1], 294.2 K, Crystal of intercomponent compound 1, Hot disk method	–	–	0.82	–
[1], 308.2 K, Liquid	1425	–	–	5.34
[1], 313.2 K, Liquid	1420	–	–	4.8
[1], 318.2 K, Liquid	1413	–	–	4.37
[1], 323.2 K, Liquid	1408	–	–	3.96
[1], 328.2 K, Liquid	1402	–	–	3.6
[1], 333.2 K, Liquid	1395	–	–	3.31
[1], 338.2 K, Liquid	1390	–	–	3.06
[1], 343.2 K, Liquid	1384	–	–	2.84
[1], 348.2 K, Liquid	1378	–	–	2.63
[1], 353.2 K, Liquid	1372	–	–	2.46
[2], 253.2 K, Crystal of intercomponent compound 1, Small sample (50 mg) DSC	–	48.92	–	–
[2], 263.2 K, Crystal of intercomponent compound 1, Small sample (50 mg) DSC	–	50.15	–	–
[2], 273.2 K, Crystal of intercomponent compound 1, Small sample (50 mg) DSC	–	51.38	–	–
[2], 283.2 K, Crystal of intercomponent compound 1, Small sample (50 mg) DSC	–	52.61	–	–
[2], 288.2 K, Crystal of intercomponent compound 1, Small sample (50 mg) DSC	–	53.22	–	–

Liquid
Conditions	molar heat capacity at constant pressure [J/K/mol]	thermal conductivity [W/m/K]
[1], 308.2 K, hot wire	–	0.584
[1], 313.2 K, hot wire	–	0.581
[1], 318.2 K, hot wire	–	0.587
[1], 323.2 K, hot wire	–	0.583
[1], 328.2 K, hot wire	–	0.585
[1], 333.2 K, hot wire	–	0.588
[1], 338.2 K, hot wire	–	0.588
[1], 343.2 K, hot wire	–	0.588
[1], 348.2 K, hot wire	–	0.595
[1], 353.2 K, hot wire	–	0.611
[2], 308.2 K, hot wire method	89.52	–
[2], 313.2 K, Small sample (50 mg) DSC	84.91	–
[2], 313.2 K, hot wire method	89.52	–
[2], 318.2 K, hot wire method	90.45	–
[2], 323.2 K, Small sample (50 mg) DSC	85.22	–
[2], 323.2 K, hot wire method	90.45	–
[2], 328.2 K, hot wire method	91.06	–
[2], 333.2 K, Small sample (50 mg) DSC	84.91	–
[2], 333.2 K, hot wire method	91.68	–
[2], 338.2 K, hot wire method	91.99	–
[2], 343.2 K, Small sample (50 mg) DSC	85.22	–
[2], 343.2 K, hot wire method	92.29	–
[2], 348.2 K, hot wire method	93.22	–
[2], 353.2 K, Small sample (50 mg) DSC	84.91	–
[2], 353.2 K, hot wire method	94.45	–

From the NIST ThermoML archive (doi:10.1021/je3000469)
